Source: patent EP0476120B1, “PROCESS FOR PREPARING EQUIMOLAR SALTS OF ASPARTIC ACID AND MAGNESIUM, MAGNESIUM ASPARTATE SALT OBTAINED BY SAID PROCESS AND ITS APPLICATIONS” (LA[…] SPINDLER, priority 1990, dated 1991)
Like-named read-outs stand apart in the source and are kept apart here.

Assays:
souris = settings: mouse; for Nombre de passages (moyenne): 60 min before test, controls 5,5
Text: Le test est pratiqué chez des souris NMRI-HAN soumises à une diète hydrique préalable de 18 heures et réparties en séries de 15.
L'appareillage utilisé consiste en une boite en plexiglas dont le sol est constitué de 4 plaques métalliques séparées les unes des autres. Un circuit d'alimentation permet d'établir une différence de potentiel entre deux plaques adjacentes grâce à un contacteur. Le test est pratiqué en plaçant doucement une souris sur une des plaques du fond de l'appareil ; les plaques sont électrifiées chaque fois que la souris passe de l'une à l'autre, de telle sorte qu'elle reçoit alors un choc électrique au niveau des pattes. Les paramètres du choc sont les suivants : durée de l'impulsion électrique égale à 0,5 seconde ; intensité égale à 0,6 milliampères. Ce choc induit chez les animaux une réaction motrice évidente de fuite, la souris traversant souvent 2 à 3 plaques successivement. Les conditions expérimentales adoptées ont été les suivantes : exploration libre pendant 15 secondes, traversée punie pendant la minute suivante, les résultats étant exprimés en nombre de passages "punis" pendant cette minute. Soixante souris ont été réparties de la façon suivante :
Les administrations ont été réalisées par voie intra-gastrique, à partir de solutions aqueuses, sous un volume constant de 20 ml.kg⁻¹, 60 minutes avant le début du test. Les animaux contrôles ont reçu un même volume d'eau distillée.
Les administrations ont été réalisées par voie intra-gastrique, à partir de solutions aqueuses, sous un volume constant de 20 ml.kg⁻¹ par produit 60 minutes avant le début du test. Les animaux contrôles ont reçu un même volume d'eau distillée.
Dans un premier temps a été calculée la DA 50 (dose anxiolytique 50) du Diazépam (Valium® 10 mg - Roche, ampoule 2ml) seul, administré à des doses suivant une progression géométrique de base 0,25 et de raison 2, soit respectivement 0,25, 0,5 l et 2 mg.kg⁻¹.
La DA 50 est déterminée à partir du pourcentage d'animaux tranquillisés. Est considéré comme tranquillisé tout animal dont le nombre de passages punis est égal ou supérieur à 9, c'est-à-dire à une valeur représentant une augmentation d'au moins 50 % par rapport au score moyen d'animaux non traités.
Toutes les administrations ont été réalisées par voie intra-gastrique à partir de solutions aqueuses, sous un volume constant de 20 ml.kg⁻¹ (eau distillée pour le groupe contrôle). […] La veille du test, les souris sont soumises à une diète hydrique de 18 heures. La dernière ingestion est pratiquée une heure avant l'étude, concomitamment avec le diazépam (Valium® 10 mg - Roche, ampoules de 2 ml).

[1] = tested on: singes cynomolggus (Macaca fascicularis); settings: monkey
Text: L'étude a été réalisée chez sept singes cynomolggus (Macaca fascicularis), de sexe mâle et femelle, pesant entre 2 et 5 kg.
Un mois avant le début de l'étude, sous anesthésie générale (kétamine + xylazine) huit électrodes (boules d'argent) ont été implantées dans la table osseuse, au niveau des aires frontale, centrale, pariétale et occipitale droites et gauche. L'électrocorticogramme a été enregistré sur un électroencéphalographe REEGA mini-huit (Alvar Electronic) en dérivations monopolaires par rapport à une référence commune.
Les enregistrements ont été réalisés sur des animaux habitués au siège à contention, en position assise, dans une pièce calme mais non insonorisée, en ambiance lumineuse tamisée.
Les huit dérivations EEG ont été analysées simultanément par un Neuromapper 1620 (Neuroscience) qui extrait du signal les transformées de Fourier ("Fast Fourier Transform" : FFT). En fait, 90 échantillons de 2 secondes, soit 3 minutes de tracé exempt d'artefact, ont été analysés. Les données recueillies correspondent à l'amplitude (»V) de chacune des 5 bandes de fréquence EEG classiques selon les bornes suivantes : delta de 0 à 4 Hz ; thêta de 7 à 8 Hz ; alpha de 8 à 13 Hz, bêta₁ de 13 à 20 Hz ; bêta₂ de 20 à 30 Hz.
Pour chacune de ces bandes ont ensuite été calculées : • Les puissances absolues en »V² • les puissances relatives (%), c'est-à-dire la puissance de chacune des bandes de fréquence rapportée à la puissance totale du spectre (power) • la "SEF 95 % (Spectral Edge Frequency 95 %) qui est la fréquence en deçà de laquelle se situent 95 % de la puissance totale du spectre, • le rapport entre fréquences rapides et fréquences lentes : alpha+ bêta/delta + thêta ( α+β/δ+ϑ [formula] )
La dernière ingestion a précédé de 1 heure la seconde administration de diazépam.
Le diazépam (ampoules injectables - Valium® 10 - Roche) a été administré par voie orale, en solution aqueuse, sous un volume de 10 ml/singe, à des doses comprises entre 0,5 mg.kg⁻¹ et 4 mg.kg⁻¹ (doses différentes du fait d'une sensibilité individuelle propre à chaque sujet).
100 (le seuil de probabilité statistique choisi peut paraître élevé ; il est en rapport avec le faible nombre de sujets : n=7). L'ensemble de l'analyse statistique a été obtenu grâce au programme statistique SPSS/PC⁺ (SPSS Inc., Chicago)

## CN1C(=O)CN=C(c2ccccc2)c2cc(Cl)ccc21 [Diazépam, reference compound]
souris; Valium alone 0,5 mg.kg⁻¹ P.O.
  Nombre de passages (moyenne): 7,7
souris; Valium alone 0,25 mg.kg⁻¹ P.O.
  Nombre de passages (moyenne): 7,3
souris; Valium alone 1 mg.kg⁻¹ P.O.
  Nombre de passages (moyenne): 9,5
souris; Valium alone 2 mg.kg⁻¹ P.O.
  Nombre de passages (moyenne): 10,6
souris; diazepam alone P.O., from % tranquillised animals (>= 9 punished crossings)
  DA 50 (dose anxiolytique 50): 0,76 mg.kg⁻¹
[1]; diazepam alone 0,5-4 mg.kg⁻¹ P.O.
  durée de l'action: jusqu'à la 5ème heure
[1]; diazepam alone 0,5-4 mg.kg⁻¹ P.O., figure 4
  valeurs du rapport α+β/δ+ϑ: augmentation durable
[1]; diazepam alone 0,5-4 mg.kg⁻¹ P.O., time after ingestion
  acmé de l'effet: 45 minutes à une heure
[1]; diazepam alone 0,5-4 mg.kg⁻¹ orally, at peak effect one hour after ingestion, reference 20 %
  proportion relative de la bande β₂: 27%
[1]; diazepam alone (first test), figure 3
  "SEF 95 %": temps du maximum: 30 min
